Reference: ChEMBL document CHEMBL4387731, “Eicosanoid mediation of cannabinoid actions” (2019)

Tests used:
[1] = Inhibition of IL1aplha-induced PGE2 production in bovine articular chondrocytes at 5 uM incubated for 48 hrs by ELISA relative to control; format: functional; details: Bos taurus
[2] = tested on: J774; assay: Inhibition of LPS-induced PGE2 production in mouse J774 cells at 10 uM incubated for 24 hrs by enzyme immunoassay relative to control; format: functional; details: J774, 24 h
[3] = tested on: Oryctolagus cuniculus; assay: Reduction in intraocular pressure in rabbit applied topically relative to control; format: functional; set-up: scale not given: the % may be the effect or the level left
[4] = species on record: Cavia porcellus; assay: Agonist activity at Dunkin Hartley guinea pig CB2 receptor assessed as reduction in […] level at 20 uM incubated for 10 mins relative to control
[5] = biological target: Cannabinoid receptor 2 (Homo sapiens) (UniProt P34972); assay: Agonist activity at human CB2 receptor assessed as reduction in […] level at 20 uM incubated for 10 mins relative to control
[6] = species on record: Cavia porcellus; assay: Agonist activity at Dunkin Hartley guinea pig CB2 receptor assessed as inhibition of capsaicin-induced depolarization at 20 uM incubated for 10 mins relative to control
[7] = biological target: Cannabinoid receptor 2 (Homo sapiens) (UniProt P34972); assay: Agonist activity at human CB2 receptor assessed as inhibition of capsaicin-induced depolarization at 20 uM incubated for 10 mins relative to control
[8] = tested on: Mus musculus; assay: Reduction in anandamide production in athymic CD-1 nude mouse xenografted with human U87 cells at 0.5 mg/mouse/day administered peritumorally for 5 days by RP-HPLC with fluorimetric detection method relative to control; format: functional; set-up: scale not given: the % may be the effect or the level left
[9] = tested on: Mus musculus; assay: Reduction in LTB4 production in athymic CD-1 nude mouse xenografted with human U87 cells at 0.5 mg/mouse/day administered peritumorally for 5 days by RP-HPLC analysis relative to control; format: functional; set-up: scale not given: the % may be the effect or the level left

Sequence of Cannabinoid receptor 2 (Homo sapiens) (P34972 whole entry): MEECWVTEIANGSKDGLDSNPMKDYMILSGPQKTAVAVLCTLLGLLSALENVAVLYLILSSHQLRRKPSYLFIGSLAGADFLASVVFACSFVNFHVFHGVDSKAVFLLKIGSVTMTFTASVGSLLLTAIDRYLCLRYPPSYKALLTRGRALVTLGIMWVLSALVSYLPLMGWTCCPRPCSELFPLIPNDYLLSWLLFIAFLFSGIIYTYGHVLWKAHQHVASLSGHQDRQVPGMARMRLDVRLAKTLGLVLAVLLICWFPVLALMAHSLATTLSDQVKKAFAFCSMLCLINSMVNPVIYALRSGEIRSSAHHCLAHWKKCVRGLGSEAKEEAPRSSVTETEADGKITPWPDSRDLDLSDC

Cc1c(C(=O)c2cccc3ccccc23)c2cccc3c2n1[C@H](CN1CCOCC1)CO3 [WIN-552122]
inhibition at 5 µM [1]: > 50%

CCCCCc1cc(O)c2c(c1)OC(C)(C)[C@@H]1CCC(C)=C[C@@H]21 [DRONABINOL]
inhibition at 10 µM [2]: 60%
Activity [3]: 20 - 25%

O=C(NCc1ccncc1)c1cnc(Nc2cccc(Cl)c2)nc1C(F)(F)F
Imax [4]: 40%
Imax [5]: 40%
Imax [6]: 40%
Imax [7]: 40%

C=C(C)[C@@H]1CCC(C)=C[C@H]1c1c(O)cc(CCCCC)cc1O [CANNABIDIOL]
Activity [8]: 30%
Activity [9]: 25%

CCCCCCC(C)(C)c1cc(O)c2c(c1)OC(C)(C)[C@@H]1CCC(CO)=C[C@@H]21
inhibition at 5 µM [1]: > 50%
